Source: article PMC5298231, “The Malaria Parasite's Lactate Transporter PfFNT Is the Target of Antiplasmodial Compounds Identified in Whole Cell Phenotypic Screens” (PLoS Pathogens, 2017)
Where two headings read alike, the source gives them in different places.

Test system: erythrocytes infected with 3D7 trophozoites
Assay type: cell-based, Plasmodium falciparum
Settings: 6 μM

COc1ccc2c(c1)OC(O)(C(F)(F)C(F)(F)F)CC2=O (stereo not drawn) [MMV007839]
ESFG log2 ratio (+MMV007839/-MMV007839) (Av 1hr): 0.4045
EVGG log2 ratio (+MMV007839/-MMV007839) (Av 1hr): 0.01776
Erythrose 4-phosphate log2 ratio (+MMV007839/-MMV007839) (Av 1hr): -0.3514
FAD log2 ratio (+MMV007839/-MMV007839) (Av 1hr): -0.08791
FMN log2 ratio (+MMV007839/-MMV007839) (Av 1hr): -0.2425
Farnesyl diphosphate log2 ratio (+MMV007839/-MMV007839) (Av 1hr): -0.0002912
Folate log2 ratio (+MMV007839/-MMV007839) (Av 1hr): -0.2316
Fructose-1-6-bisphosphate log2 ratio (+MMV007839/-MMV007839) (Av 1hr): 1.122
Fructose-6-Phosphate log2 ratio (+MMV007839/-MMV007839) (Av 1hr): 0.08818
GDP log2 ratio (+MMV007839/-MMV007839) (Av 1hr): -0.6846
GDP-mannose log2 ratio (+MMV007839/-MMV007839) (Av 1hr): 0.01571
GMP log2 ratio (+MMV007839/-MMV007839) (Av 1hr): -1.125
GTP log2 ratio (+MMV007839/-MMV007839) (Av 1hr): -0.5732
Geranylgeranyl pyrophosphate log2 ratio (+MMV007839/-MMV007839) (Av 1hr): -0.5786
Gluconate log2 ratio (+MMV007839/-MMV007839) (Av 1hr): 0.1947
Glucose-6-Phosphate log2 ratio (+MMV007839/-MMV007839) (Av 1hr): -0.1863
Glutamate log2 ratio (+MMV007839/-MMV007839) (Av 1hr): 0.1005
Glutamine log2 ratio (+MMV007839/-MMV007839) (Av 1hr): 0.7703
Glutathione disulfide log2 ratio (+MMV007839/-MMV007839) (Av 1hr): 0.1943
Glutathione log2 ratio (+MMV007839/-MMV007839) (Av 1hr): -0.1919
Glyceraldehyde 3-phosphate log2 ratio (+MMV007839/-MMV007839) (Av 1hr): -0.7606
Glycerone phosphate log2 ratio (+MMV007839/-MMV007839) (Av 1hr): 0.5926
HLD log2 ratio (+MMV007839/-MMV007839) (Av 1hr): -0.3486
HVDD log2 ratio (+MMV007839/-MMV007839) (Av 1hr): -0.6691
Histidine log2 ratio (+MMV007839/-MMV007839) (Av 1hr): 0.5758
Homoserine log2 ratio (+MMV007839/-MMV007839) (Av 1hr): 0.3097
Hydroxy-L-proline log2 ratio (+MMV007839/-MMV007839) (Av 1hr): 0.2443
Hypoxanthine log2 ratio (+MMV007839/-MMV007839) (Av 1hr): 0.3704
IDP log2 ratio (+MMV007839/-MMV007839) (Av 1hr): -0.1758
IMP log2 ratio (+MMV007839/-MMV007839) (Av 1hr): -0.02277
Inosine log2 ratio (+MMV007839/-MMV007839) (Av 1hr): 0.5137
Isoleucine log2 ratio (+MMV007839/-MMV007839) (Av 1hr): 0.3056
LD log2 ratio (+MMV007839/-MMV007839) (Av 1hr): 0.3825
Lactate log2 ratio (+MMV007839/-MMV007839) (Av 1hr): 2.358
Leucine log2 ratio (+MMV007839/-MMV007839) (Av 1hr): 0.1553
Lysine log2 ratio (+MMV007839/-MMV007839) (Av 1hr): 1.68
Malate log2 ratio (+MMV007839/-MMV007839) (Av 1hr): 0.1358
Mannitol log2 ratio (+MMV007839/-MMV007839) (Av 1hr): 0.0108
Methionine log2 ratio (+MMV007839/-MMV007839) (Av 1hr): 0.2615
Myristic acid log2 ratio (+MMV007839/-MMV007839) (Av 1hr): 0.2261
N-Acetyl-glutamate log2 ratio (+MMV007839/-MMV007839) (Av 1hr): -0.007377
N-Carbamoyl-L-aspartate log2 ratio (+MMV007839/-MMV007839) (Av 1hr): -1.378
NAD+ log2 ratio (+MMV007839/-MMV007839) (Av 1hr): 0.03204
NADH log2 ratio (+MMV007839/-MMV007839) (Av 1hr): -1.36
NADP+ log2 ratio (+MMV007839/-MMV007839) (Av 1hr): -0.2617
Octoluse Bisphosphate log2 ratio (+MMV007839/-MMV007839) (Av 1hr): 1.912
Ornithine log2 ratio (+MMV007839/-MMV007839) (Av 1hr): 0.2172
Orotate log2 ratio (+MMV007839/-MMV007839) (Av 1hr): -1.216
Orotidine 5-phosphate log2 ratio (+MMV007839/-MMV007839) (Av 1hr): -1.5
Orotidine log2 ratio (+MMV007839/-MMV007839) (Av 1hr): -0.4366
PAEF log2 ratio (+MMV007839/-MMV007839) (Av 1hr): -0.4364
PAVH log2 ratio (+MMV007839/-MMV007839) (Av 1hr): -1.011
PD log2 ratio (+MMV007839/-MMV007839) (Av 1hr): 0.2765
PDAV log2 ratio (+MMV007839/-MMV007839) (Av 1hr): 0.344
PE log2 ratio (+MMV007839/-MMV007839) (Av 1hr): 1.21
PEE log2 ratio (+MMV007839/-MMV007839) (Av 1hr): 0.2418
PHF log2 ratio (+MMV007839/-MMV007839) (Av 1hr): 1.069
PPVQ log2 ratio (+MMV007839/-MMV007839) (Av 1hr): 0.02129
PVNF log2 ratio (+MMV007839/-MMV007839) (Av 1hr): -0.3384
PVQ log2 ratio (+MMV007839/-MMV007839) (Av 1hr): 0.8749
PVQA log2 ratio (+MMV007839/-MMV007839) (Av 1hr): -0.7385
Pantothenate log2 ratio (+MMV007839/-MMV007839) (Av 1hr): -0.01312
Phenylalanine log2 ratio (+MMV007839/-MMV007839) (Av 1hr): 0.1979
Phosphoenolpyruvate log2 ratio (+MMV007839/-MMV007839) (Av 1hr): 0.299
Pipecolate log2 ratio (+MMV007839/-MMV007839) (Av 1hr): 0.4539
Proline log2 ratio (+MMV007839/-MMV007839) (Av 1hr): 0.1646
Pyridoxine log2 ratio (+MMV007839/-MMV007839) (Av 1hr): 0.1656
Pyruvate log2 ratio (+MMV007839/-MMV007839) (Av 1hr): 1.42
Ribose-5-phosphate log2 ratio (+MMV007839/-MMV007839) (Av 1hr): 0.9115
S-Adenosyl-L-homocysteine log2 ratio (+MMV007839/-MMV007839) (Av 1hr): -0.1282
SDGLA log2 ratio (+MMV007839/-MMV007839) (Av 1hr): -0.148
SFGD log2 ratio (+MMV007839/-MMV007839) (Av 1hr): -0.0354
Sedoheptoluse bisphosphate log2 ratio (+MMV007839/-MMV007839) (Av 1hr): 0.6095
Sedoheptulose-1/7-phosphate log2 ratio (+MMV007839/-MMV007839) (Av 1hr): 0.1578
Serine log2 ratio (+MMV007839/-MMV007839) (Av 1hr): 0.004434
Succinate log2 ratio (+MMV007839/-MMV007839) (Av 1hr): 0.4975
Succinate semialdehyde log2 ratio (+MMV007839/-MMV007839) (Av 1hr): -0.3802
TNVK log2 ratio (+MMV007839/-MMV007839) (Av 1hr): -0.9736
Threonine log2 ratio (+MMV007839/-MMV007839) (Av 1hr): 0.4202
Tryptophan log2 ratio (+MMV007839/-MMV007839) (Av 1hr): 0.09509
Tyrosine log2 ratio (+MMV007839/-MMV007839) (Av 1hr): 0.1697
UDP log2 ratio (+MMV007839/-MMV007839) (Av 1hr): -0.1565
UDP-N-acetyl-D-glucosamine log2 ratio (+MMV007839/-MMV007839) (Av 1hr): 0.0845
UDP-glucose log2 ratio (+MMV007839/-MMV007839) (Av 1hr): -0.08513
UMP log2 ratio (+MMV007839/-MMV007839) (Av 1hr): -0.3602
Uracil log2 ratio (+MMV007839/-MMV007839) (Av 1hr): -0.4869
Uric Acid log2 ratio (+MMV007839/-MMV007839) (Av 1hr): 0.02649
VD log2 ratio (+MMV007839/-MMV007839) (Av 1hr): 1.818
Valine log2 ratio (+MMV007839/-MMV007839) (Av 1hr): 0.1364
Xanthine log2 ratio (+MMV007839/-MMV007839) (Av 1hr): 0.3309
dADP log2 ratio (+MMV007839/-MMV007839) (Av 1hr): -0.3244
dATP log2 ratio (+MMV007839/-MMV007839) (Av 1hr): 0.05147
dCDP log2 ratio (+MMV007839/-MMV007839) (Av 1hr): 0.3024
dGMP log2 ratio (+MMV007839/-MMV007839) (Av 1hr): 0.08489
dTMP log2 ratio (+MMV007839/-MMV007839) (Av 1hr): -0.02247
dTTP log2 ratio (+MMV007839/-MMV007839) (Av 1hr): 0.2046
dUMP log2 ratio (+MMV007839/-MMV007839) (Av 1hr): 1.26
myo-Inositol log2 ratio (+MMV007839/-MMV007839) (Av 1hr): -0.07002
sn-Glycerol 3-phosphate log2 ratio (+MMV007839/-MMV007839) (Av 1hr): 1.379
sn-glycero-3-Phospho-1-inositol log2 ratio (+MMV007839/-MMV007839) (Av 1hr): -0.128
Hexose-phosphate log2 ratio (+MMV007839/-MMV007839) (Av 1hr, medRt 15.0954): -0.2585
6-Phospho-D-gluconate log2 ratio (+MMV007839/-MMV007839) (Av 1hr, medRt 16.8944): -0.386
Hexose-phosphate log2 ratio (+MMV007839/-MMV007839) (Av 1hr, medRt 17.0788): -1.607
6-Phospho-D-gluconate log2 ratio (+MMV007839/-MMV007839) (Av 1hr, medRt 17.4636): -0.04985
1-3 (2-3)-diphopshateglycerate log2 ratio (+MMV007839/-MMV007839) (Av 3hr): 0.8355
